{
  "source": "patent US20240108740A1",
  "about": "“THERAPEUTIC COMPOSITIONS INCLUDING SPN10 AND USES THEREOF” (Stealth BioTherapeutics Inc., priority 2022, published 2024)",
  "key": {"Sprague Dawley rats": {"tested_on": "Sprague Dawley rats", "test": "Example 49: progression of tissue damage following a burn", "conditions": "rat, in vivo", "protocol": "Sprague Dawley rats will be randomized into the following groups; sham-burn (SB), burn with saline treatment (B), burn with peptide conjugate-treatment (BP), burn with aromatic-cationic peptides (BP2), burn with SPN10(s) (BP3), and burn with SPN10(s)+aromatic-cationic peptides (BP4). Band BP, BP2, BP3 and BP4 animals will receive a 30% total body surface area full thickness burns by immersing the dorsal body into 100° C. water for 12 seconds with immediate fluid resuscitation. […] Wound re-epithelialization, contraction, and depth will be assessed via gross morphology and histologically over a period of 21 days. […]\nApoptosis of hair follicles of the skin will be measured using TUNEL labeling and activated caspase-3 immunostaining using skin samples obtained between 0 and 48 hours post-burn. Quantification of TUNEL and caspase-3 staining will be done on digitally acquired images at high power. The number of positive cells per high power field will be determined, and compared among the groups.\n[…] mapping will be performed using Doppler imaging to assess wound blood flow. Two hours post-burn, the dorsum of the animal will be imaged on a scanning laser Doppler apparatus to quantify the superficial blood flow distribution in the skin within and outside of the burn area. For […] mapping, 100 male Sprague-Dawley rats will be used. […]"}, "[1]": {"tested_on": "renal ischemia-reperfusion (IR) injury in rats", "test": "Mitochondrial respiration and ATP synthesis after renal ischemia-reperfusion injury", "assay_type": "in vivo, rat", "conditions": "45 minutes renal artery occlusion, 20 minutes or 1 hour reperfusion", "protocol": "Animals will be subjected to bilateral occlusion of renal artery for 45 minutes followed by 20 minutes or 1 hour of reperfusion. Subjects will receive saline vehicle, a peptide conjugate (2.0 mg/kg s.c.), an aromatic-cationic peptide (an equivalent molar dose of aromatic-cationic peptide based on concentration of the aromatic-cationic peptide administered in the peptide conjugate group) SPN10 (an equivalent molar dose of SPN10 based on concentration of SPN10 administered in the peptide conjugate group), or SPN10(s) in combination with aromatic-cationic peptides (e.g., an equivalent molar dose of SPN10 based on the concentration of SPN10 administered in the peptide conjugate treatment group and an equivalent molar dose of aromatic-cationic peptide based on the concentration of aromatic-cationic peptide administered in the peptide conjugate treatment group) 30 minutes before ischemia and again at the time of reperfusion (n=4-5 in each group). It is anticipated that the peptide conjugate, aromatic-cationic peptide or SPN10(s) (with or without aromatic-cationic peptides) will improve oxygen consumption and ATP synthesis."}, "CD36": {"tested_on": "CD36", "test": "Example 4: CD36 mRNA in post-ischemic brain (real time PCR)", "assay_type": "in vivo, mouse", "conditions": "treatment at 0 and 6 hours after 30 minute ischemia", "protocol": "Wild-type mice will be given saline vehicle (Veh, i.p., n=6), peptide conjugates (5 mg/kg, i.p., n=6), aromatic-cationic peptides (e.g., an equivalent molar dose of aromatic-cationic peptide based on the concentration of the aromatic-cationic peptide administered in the peptide conjugate treatment group), SPN10(s) (e.g., an equivalent molar dose of SPN10 based on the concentration of SPN10 administered in the peptide conjugate treatment group), or SPN10(s) in combination with aromatic-cationic peptides (e.g., an equivalent molar dose of SPN10 based on the concentration of SPN10 administered in the peptide conjugate treatment group and an equivalent molar dose of aromatic-cationic peptide based on the concentration of aromatic-cationic peptide administered in the peptide conjugate treatment group) at 0 and 6 hours after a 30 minute period of ischemia. Levels of CD36 mRNA in post-ischemic brain will be determined using real time PCR."}, "[2]": {"tested_on": "isolated mouse liver mitochondria", "test": "Example 11: mitochondrial respiration and membrane potential", "protocol": "Isolated mouse liver mitochondria will be incubated with 100 pM of SPN10(s) (with or without aromatic-cationic peptides) or peptide conjugates, and oxygen consumption will be measured. […] Mitochondrial membrane potential will be measured using TMRM. It is anticipated that addition of mitochondria will result in immediate quenching of the TMRM signal, which will be readily reversible by the addition of FCCP, indicating mitochondrial depolarization. It is anticipated that the addition of Ca^2+ (150 μM) will result in immediate mitochondrial depolarization followed by progressive loss of quenching indicative of MPT."}},
  "note": "Residues, ends and D or L forms follow the SMILES beside them.",
  "data": [
    {"smiles": "N=C(N)NCCC[C@H](NC(=O)[C@@H](N)Cc1c[nH]c2ccccc12)C(=O)N[C@@H](Cc1c[nH]c2ccccc12)C(=O)N[C@@H](CCCCN)C(N)=O", "note": "[SPN10, H-L-Trp-L-Arg-L-Trp-L-Lys-NH2] (H-WRWK-NH2)", "values": [
      {"measurement": "burn-induced apoptosis and blood flow", "setting": "Sprague Dawley rats", "result": "reduce burn-induced apoptosis and blood flow"},
      {"measurement": "wound healing and progression of burn injuries", "setting": "Sprague Dawley rats", "result": "accelerate wound healing and attenuate the progression of burn injuries"},
      {"measurement": "oxygen consumption and ATP synthesis", "setting": "[1]", "result": "improve"},
      {"measurement": "CD36 mRNA in the ipsilateral brain", "setting": "CD36", "result": "significantly reduced"},
      {"measurement": "respiratory ratio (state 3/state 4)", "setting": "[2]; 100 pM", "result": 6.2, "unit": "versus 6.0"},
      {"measurement": "mitochondrial depolarization or MPT by the compound alone (TMRM)", "setting": "[2]; even at 200 μM", "result": "will not cause mitochondrial depolarization or MPT"}
    ]}
  ]
}
